Laboratory results as given in ChEMBL document CHEMBL3627692, “Inhibition of mammalian carbonic anhydrase isoforms I-XIV with a series of phenolic acid esters” (Bioorg Med Chem, 2015).

Legend:
Carbonic anhydrase 1 = Carbonic anhydrase 1 (Homo sapiens, UniProt P00915); test: Inhibition of human carbonic anhydrase 1 preincubated for 15 mins by stopped-flow CO2 hydration assay
Carbonic anhydrase 2 = Carbonic anhydrase 2 (Homo sapiens, UniProt P00918); test: Inhibition of human carbonic anhydrase 2 preincubated for 15 mins by stopped-flow CO2 hydration assay
Carbonic anhydrase 3 = Carbonic anhydrase 3 (Homo sapiens, UniProt P07451); test: Inhibition of human carbonic anhydrase 3 preincubated for 15 mins by stopped-flow CO2 hydration assay
Carbonic anhydrase 3, sequence (P07451 whole entry): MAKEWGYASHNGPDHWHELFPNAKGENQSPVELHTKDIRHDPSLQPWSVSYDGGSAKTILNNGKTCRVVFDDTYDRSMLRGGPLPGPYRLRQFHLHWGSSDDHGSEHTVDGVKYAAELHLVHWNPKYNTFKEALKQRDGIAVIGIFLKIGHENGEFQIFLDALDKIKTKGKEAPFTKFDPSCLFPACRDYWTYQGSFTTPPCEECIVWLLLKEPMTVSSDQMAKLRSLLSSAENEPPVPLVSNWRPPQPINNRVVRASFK

Carbonic anhydrase 4 = Carbonic anhydrase 4 (Homo sapiens, UniProt P22748); test: Inhibition of human carbonic anhydrase 4 preincubated for 15 mins by stopped-flow CO2 hydration assay
Carbonic anhydrase 4, sequence (P22748 whole entry): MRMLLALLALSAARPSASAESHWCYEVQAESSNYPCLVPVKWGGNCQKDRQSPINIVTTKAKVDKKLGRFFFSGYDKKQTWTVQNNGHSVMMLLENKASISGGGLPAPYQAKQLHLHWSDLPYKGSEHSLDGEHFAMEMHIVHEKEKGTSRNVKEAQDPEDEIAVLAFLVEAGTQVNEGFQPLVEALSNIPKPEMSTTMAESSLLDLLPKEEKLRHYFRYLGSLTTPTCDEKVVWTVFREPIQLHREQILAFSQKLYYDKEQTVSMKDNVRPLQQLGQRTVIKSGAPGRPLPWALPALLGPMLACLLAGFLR

[1] = molecular target: Carbonic anhydrase 5A, mitochondrial (Homo sapiens, UniProt P35218); test: Inhibition of human carbonic anhydrase 5A preincubated for 15 mins by stopped-flow CO2 hydration assay
Carbonic anhydrase 5A, mitochondrial, sequence (P35218 whole entry): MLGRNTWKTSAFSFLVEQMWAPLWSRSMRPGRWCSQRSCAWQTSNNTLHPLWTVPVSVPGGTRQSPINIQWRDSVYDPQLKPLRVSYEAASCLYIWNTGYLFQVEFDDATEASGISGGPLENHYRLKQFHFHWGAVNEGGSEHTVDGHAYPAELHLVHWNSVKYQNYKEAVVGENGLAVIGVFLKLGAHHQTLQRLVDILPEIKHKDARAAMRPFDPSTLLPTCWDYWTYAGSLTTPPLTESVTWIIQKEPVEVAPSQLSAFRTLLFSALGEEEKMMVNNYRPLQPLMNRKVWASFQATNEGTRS

[2] = molecular target: Carbonic anhydrase 5B, mitochondrial (Homo sapiens, UniProt Q9Y2D0); test: Inhibition of human carbonic anhydrase 5B preincubated for 15 mins by stopped-flow CO2 hydration assay
Carbonic anhydrase 5B, mitochondrial, sequence (Q9Y2D0 whole entry): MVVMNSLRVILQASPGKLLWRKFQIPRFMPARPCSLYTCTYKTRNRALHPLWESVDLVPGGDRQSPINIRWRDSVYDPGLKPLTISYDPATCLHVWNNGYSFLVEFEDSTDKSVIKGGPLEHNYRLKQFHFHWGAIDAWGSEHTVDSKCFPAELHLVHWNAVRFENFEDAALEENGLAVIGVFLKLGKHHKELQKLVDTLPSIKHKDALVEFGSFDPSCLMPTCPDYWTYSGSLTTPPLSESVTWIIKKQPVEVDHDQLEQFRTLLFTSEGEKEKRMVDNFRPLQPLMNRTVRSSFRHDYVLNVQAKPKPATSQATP

Carbonic anhydrase 6 = Carbonic anhydrase 6 (Homo sapiens, UniProt P23280); test: Inhibition of human carbonic anhydrase 6 preincubated for 15 mins by stopped-flow CO2 hydration assay
Carbonic anhydrase 6, sequence (P23280 whole entry): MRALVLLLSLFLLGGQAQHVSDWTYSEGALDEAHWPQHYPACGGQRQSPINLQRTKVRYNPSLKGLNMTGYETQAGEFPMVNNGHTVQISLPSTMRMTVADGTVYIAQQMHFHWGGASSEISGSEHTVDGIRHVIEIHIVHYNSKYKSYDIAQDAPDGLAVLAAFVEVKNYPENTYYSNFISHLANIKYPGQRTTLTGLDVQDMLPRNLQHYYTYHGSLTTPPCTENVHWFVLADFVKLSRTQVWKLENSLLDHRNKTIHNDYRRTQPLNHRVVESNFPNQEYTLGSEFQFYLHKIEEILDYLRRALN

Carbonic anhydrase 7 = Carbonic anhydrase 7 (Homo sapiens, UniProt P43166); test: Inhibition of human carbonic anhydrase 7 preincubated for 15 mins by stopped-flow CO2 hydration assay
Carbonic anhydrase 7, sequence (P43166 whole entry, the tested form may be a part): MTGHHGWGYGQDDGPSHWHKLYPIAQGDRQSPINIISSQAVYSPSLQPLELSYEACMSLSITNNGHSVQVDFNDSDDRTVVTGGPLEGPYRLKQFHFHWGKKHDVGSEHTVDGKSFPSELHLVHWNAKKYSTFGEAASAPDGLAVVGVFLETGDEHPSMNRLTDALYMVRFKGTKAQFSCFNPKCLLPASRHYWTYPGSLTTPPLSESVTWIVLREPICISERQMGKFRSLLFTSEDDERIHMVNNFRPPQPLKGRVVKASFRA

Carbonic anhydrase 9 = Carbonic anhydrase 9 (Homo sapiens, UniProt Q16790); test: Inhibition of human catalytic domain of carbonic anhydrase 9 preincubated for 15 mins by stopped-flow CO2 hydration assay
Carbonic anhydrase 12 = Carbonic anhydrase 12 (Homo sapiens, UniProt O43570); test: Inhibition of human catalytic domain of carbonic anhydrase 12 preincubated for 15 mins by stopped-flow CO2 hydration assay
Carbonic anhydrase 12, sequence (O43570 whole entry, the tested form may be a part): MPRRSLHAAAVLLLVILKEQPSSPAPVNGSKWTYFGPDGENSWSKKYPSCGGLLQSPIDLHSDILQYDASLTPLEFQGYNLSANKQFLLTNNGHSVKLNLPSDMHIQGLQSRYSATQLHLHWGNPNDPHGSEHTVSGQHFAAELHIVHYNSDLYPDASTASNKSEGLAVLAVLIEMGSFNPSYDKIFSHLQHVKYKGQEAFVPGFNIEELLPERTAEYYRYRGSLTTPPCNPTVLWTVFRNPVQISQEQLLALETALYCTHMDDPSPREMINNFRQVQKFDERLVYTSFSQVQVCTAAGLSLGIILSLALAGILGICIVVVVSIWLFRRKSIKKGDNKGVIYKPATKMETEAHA

Carbonic anhydrase 13 = Carbonic anhydrase 13 (Mus musculus, UniProt Q9D6N1); test: Inhibition of mouse carbonic anhydrase 13 preincubated for 15 mins by stopped-flow CO2 hydration assay
Carbonic anhydrase 13, sequence (Q9D6N1 whole entry): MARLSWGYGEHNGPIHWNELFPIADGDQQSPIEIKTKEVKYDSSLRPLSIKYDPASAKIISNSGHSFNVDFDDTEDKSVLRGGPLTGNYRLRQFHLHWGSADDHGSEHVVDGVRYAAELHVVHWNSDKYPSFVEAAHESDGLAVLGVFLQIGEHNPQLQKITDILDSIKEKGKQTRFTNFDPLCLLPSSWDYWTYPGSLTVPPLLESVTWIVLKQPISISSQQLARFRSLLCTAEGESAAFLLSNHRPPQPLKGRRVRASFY

Carbonic anhydrase 14 = Carbonic anhydrase 14 (Homo sapiens, UniProt Q9ULX7); test: Inhibition of human carbonic anhydrase 14 preincubated for 15 mins by stopped-flow CO2 hydration assay
Carbonic anhydrase 14, sequence (Q9ULX7 whole entry): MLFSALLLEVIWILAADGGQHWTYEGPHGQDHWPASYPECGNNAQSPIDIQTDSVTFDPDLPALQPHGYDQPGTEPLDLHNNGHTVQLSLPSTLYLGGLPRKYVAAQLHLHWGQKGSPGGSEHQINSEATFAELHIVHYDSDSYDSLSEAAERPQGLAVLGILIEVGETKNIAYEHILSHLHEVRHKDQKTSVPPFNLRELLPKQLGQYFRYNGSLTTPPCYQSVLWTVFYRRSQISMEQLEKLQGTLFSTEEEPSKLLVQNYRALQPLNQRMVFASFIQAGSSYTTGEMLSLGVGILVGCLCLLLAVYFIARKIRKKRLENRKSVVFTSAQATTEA

Carbonic anhydrase 1, sequence (P00915 whole entry): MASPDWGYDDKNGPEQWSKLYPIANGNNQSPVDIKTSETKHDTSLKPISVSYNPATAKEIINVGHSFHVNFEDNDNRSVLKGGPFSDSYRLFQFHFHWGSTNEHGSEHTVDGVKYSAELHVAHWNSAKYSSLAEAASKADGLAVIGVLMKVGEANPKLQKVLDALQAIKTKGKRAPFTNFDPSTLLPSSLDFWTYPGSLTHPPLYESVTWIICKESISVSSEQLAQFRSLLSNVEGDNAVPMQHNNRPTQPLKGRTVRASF

Compound | Ki (Carbonic anhydrase 1) | Ki (Carbonic anhydrase 2) | Ki (Carbonic anhydrase 3) | Ki (Carbonic anhydrase 4) | Ki [1] | Ki [2] | Ki (Carbonic anhydrase 6) | Ki (Carbonic anhydrase 7) | Ki (Carbonic anhydrase 9) | Ki (Carbonic anhydrase 12) | Ki (Carbonic anhydrase 13) | Ki (Carbonic anhydrase 14)
O=C(/C=C/c1ccc(O)cc1)OCc1ccccc1 | > 50 µM | > 50 µM | > 50 µM | 18.7 µM | 0.97 µM | 0.8 µM | 0.73 µM | 0.72 µM | 0.86 µM | 29.4 µM | 8.92 µM | 0.81 µM
O=C(/C=C/c1ccc(O)c(O)c1)OCCc1ccc(OCCc2ccc(O)cc2)cc1 | 5.23 µM | > 50 µM | > 50 µM | – | – | – | – | – | 0.93 µM | – | 0.84 µM | –
O=C(/C=C/c1ccc(O)c(O)c1)OCCc1cccc(OCCc2cccc(O)c2)c1 | 9.62 µM | > 50 µM | > 50 µM | – | – | – | – | – | 0.97 µM | – | 0.9 µM | –
COc1cc(/C=C/C(=O)OCCc2cccc(O)c2)ccc1O | > 50 µM | > 50 µM | > 50 µM | – | – | – | – | – | 0.99 µM | – | 0.91 µM | –
O=C(/C=C/c1ccc(O)cc1)OCCc1ccc(O)cc1 | 3.87 µM | > 50 µM | > 50 µM | – | – | – | – | – | 0.71 µM | – | 13.9 µM | –
O=C(/C=C/c1ccc(O)cc1)OCCc1cccc(O)c1 | 3.66 µM | > 50 µM | > 50 µM | – | – | – | – | – | 0.82 µM | – | 11.6 µM | –
COc1cc(/C=C/C(=O)OCCc2ccc(O)cc2)ccc1O | > 50 µM | > 50 µM | > 50 µM | – | – | – | – | – | 0.81 µM | – | 0.93 µM | –
COc1cc(/C=C/C(=O)OCc2ccccc2)ccc1O [BENZYL FERULATE] | > 50 µM | > 50 µM | > 50 µM | – | – | – | – | – | 1.03 µM | – | 0.94 µM | –
